Consider 1 compound from patent US8003676B2, “1,3,4-oxadiazole derivatives as DGAT1 inhibitors” (AstraZeneca AB, priority 2006, dated 2011).

One test has as its target T1, human DGAT1 (Homo sapiens, UniProt O75907).
T1 construct: made in house; host or cells: Sf9 insect cells (baculovirus), membrane fraction
T1 sequence (O75907 1-488): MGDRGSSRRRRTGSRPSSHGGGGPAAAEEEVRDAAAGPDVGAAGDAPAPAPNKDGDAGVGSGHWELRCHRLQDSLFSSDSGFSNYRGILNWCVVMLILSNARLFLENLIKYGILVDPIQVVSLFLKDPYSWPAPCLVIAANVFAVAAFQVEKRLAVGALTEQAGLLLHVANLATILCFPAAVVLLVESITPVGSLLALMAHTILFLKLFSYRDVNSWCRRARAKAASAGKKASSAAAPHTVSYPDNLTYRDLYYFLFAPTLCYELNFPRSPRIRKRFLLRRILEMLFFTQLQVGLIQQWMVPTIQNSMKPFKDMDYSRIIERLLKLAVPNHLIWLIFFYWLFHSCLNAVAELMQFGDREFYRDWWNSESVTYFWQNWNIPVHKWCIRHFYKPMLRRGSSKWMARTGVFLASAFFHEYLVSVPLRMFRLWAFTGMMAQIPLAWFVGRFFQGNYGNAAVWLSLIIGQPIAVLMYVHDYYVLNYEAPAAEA
The test is described as follows: Human Enzyme Assay (DGAT1 inhibition, 14C oleoyl CoA, triolein formation). The class given is biochemical. As to conditions: human DGAT1 expressed in sf9 insect cell membranes. As for the experimental part:
The in vitro assay to identify DGAT1 inhibitors uses human DGAT1 expressed in insect cell membranes as the enzyme source (Proc. Natl. Acad. Sci. 1998, 95, 13018-13023). Briefly, sf9 cells were infected with recombinant baculovirus containing human DGAT1 coding sequences and harvested after 48 h. Cells were lysed by sonication and membranes isolated by centrifuging at 28000 rpm for 1 h at 4° C. on a 41% sucrose gradient. The membrane fraction at the interphase was collected, washed, and stored in liquid nitrogen.
DGAT1 activity was assayed by a modification of the method described by Coleman (Methods in Enzymology 1992, 209, 98-102). Compound at 1-10 μM was incubated with 0.4 μg membrane protein, 5 mM MgCl2, and 100 μM1,2 dioleoyl-sn-glycerol in a total assay volume of 200 μl in plastic tubes. The reaction was started by adding ^14C oleoyl coenzyme A (30 μM final concentration) and incubated at room temperature for 30 minutes. The reaction was stopped by adding 1.5 mL 2-propanol:heptane:water (80:20:2). Radioactive triolein product was separated into the organic phase by adding 1 mL heptane and 0.5 mL 0.1 M carbonate buffer pH 9.5. DGAT1 activity was quantified by counting aliquots of the upper heptane layer by liquid scintillography.

The test system of another test is ACAT. The test is described as follows: ACAT enzyme assay (esterification of cholesterol); selectivity DGAT over ACAT. The settings on record: DGAT vs ACAT enzyme assays. The class given is biochemical. As to the method:
• Mouse adipocyte 3T3 cells were cultured to confluency in 6 well plates in new born calf serum containing media. Differentiation of the cells was induced by incubating in medium containing 10% foetal calf serum, 1 μg/mL insulin, 0.25 μM dexamethasone and 0.5 mM isobutylmethyl xanthine. After 48 h the cells were maintained in medium containing 10% foetal calf serum and 1 μg/mL insulin for a further 4-6 days. For the experiment, the medium was changed to serum-free medium and the cells pre-incubated with compound solubilised in DMSO (final concentration 0.1%) for 30 minutes. De novo lipogenesis was measured by the addition of 0.25 mM sodium acetate plus 1 μCi/mL ^14C-sodium acetate to each well for a further 2 h (J. Biol. Chem., 1976, 251, 6462-6464). […] Incorporation of radiolabel into the triglyceride fraction was analysed using a Radiomatic Flo-one Detector (Packard) connected to the HPLC machine. […] De novo lipogenesis was measured by the addition of 50 μM sodium acetate plus 3 μCi/mL ^14C-sodium acetate to each well for a further 3 h (J. Biol. Chem., 1976, 251, 6462-6464). […] Incorporation of radiolabel into the triglyceride fraction was analysed using a Radiomatic Flo-one Detector (Packard) connected to the HPLC machine. • 3) The ability of compounds to inhibit ACAT can be measured using a modification of the enzyme assay described in Billheimer (1985) Methods in Enzymology, 111, 286-293. […]

At human DGAT1, `O=C(Nc1ccc(O[C@H]2CC[C@@H](C(=O)O)CC2)cc1F)c1nnc(Nc2cc(F)c(F)cc2F)o1` [Example 1, cis-4-(3-Fluoro-4-{[5-(2,4,5-trifluoro-phenylamino)-[1,3,4]oxadiazole-2-carbonyl]-amino}-phenoxy)-cyclohexanecarboxylic acid] returned an IC50 of 4 nM. The “selectivity to inhibit DGAT over inhibition of ACAT (ratio of IC50 values in the DGAT and ACAT enzyme assays)” value with ACAT was 70 fold.
